Results: US4659734A, “Olinecarboxylic acid derivatives” (Nippon Shinyaku Co., Ltd., priority 1983, dated 1987)
Converted amounts (≈) assume the structure as drawn. “Also recorded” adds a separate entry of the source.

What was measured:
[1] = test system: Alcaligenes faecalis ATCC 8750; test: Minimum growth inhibiting concentration, Japan Chemotherapeutic Society method; format: cell-based; conditions: ATCC8750; Alcaligenes faecalis ATCC 8750, Gram -; read-out: Minimum Growth Inhibiting Concn
Procedure: (§1) The Antibacterial activity of the compounds of Examples 14, 13, 22b, 21 and 15 was determined in accordance with the method of Japan Chemotherapeutic Society (cf. Nippon Kagaku Ryoho Gakkai Shi, volume 29, number 1, pages 76 to 79, 1981) and the results are reported in Table 1, which follows.

[2] = test system: Escherichia coli NIHJ JC-2; test: as above; format: cell-based; conditions: NIHJJC2; Escherichia coli NIHJ JC-2, Gram -; read-out: Minimum Growth Inhibiting Concn
Procedure: as §1

[3] = test system: Micrococcus luteus ATCC 9341; test: as above; format: cell-based; conditions: ATCC9341; Micrococcus luteus ATCC 9341, Gram +; read-out: Minimum Growth Inhibiting Concn
Procedure: as §1

[4] = test system: Proteus mirabilis 181; test: as above; format: cell-based; conditions: Proteus mirabilis 181, Gram -; read-out: Minimum Growth Inhibiting Concn
Procedure: as §1

[5] = test system: Proteus vulgaris DX-19; test: as above; format: cell-based; conditions: DX19; Proteus vulgaris DX-19, Gram -; read-out: Minimum Growth Inhibiting Concn
Procedure: as §1

[6] = test system: Pseudomonas aeruginosa E-2; test: as above; format: cell-based; conditions: E2; Pseudomonas aeruginosa E-2, Gram -; read-out: Minimum Growth Inhibiting Concn
Procedure: as §1

[7] = test system: Pseudomonas aeruginosa No. 12; test: as above; format: cell-based; conditions: Pseudomonas aeruginosa No. 12, Gram -; read-out: Minimum Growth Inhibiting Concn
Procedure: as §1

[8] = test system: Pseudomonas maltophilia ATCC 13637; test: as above; format: cell-based; conditions: Stenotrophomonas maltophilia, ATCC13637; Pseudomonas maltophilia ATCC 13637, Gram -; read-out: Minimum Growth Inhibiting Concn
Procedure: as §1

[9] = Excretion into urine and recovery, disc method; format: in vivo, ddY strain mice; conditions: 60 mg/kg per os; for Amount excreted into Urine: average ± standard error
Procedure: In the measurement of excretion into urine, ddY strain mice (male; body weights 30±2 grams) were used. Sixty mg/kg of the compound of Example 22b was administered per os and the mice were fed in metabolic cages and their urine was collected.
Therefore, in the quantitative determination, the calibration curve of the compound of Example 21, calculated by the disc method using Escherichia coli NIHJ strain and using the compound dissolved in phosphoric acid buffer (pH 8.0; 1/15M) was used. Table 5 reports the excretion into urine with respect to time, total recovery amount and recovery rate of the compound of Example 22b.

SMILES: Cc1csc2c(C(=O)O)c(=O)c3cc(F)c(N4CCN(C)CC4)cc3n12 [Example 22b, 7-fluoro-1-methyl-8-(4-methyl-1-piperazinyl)-5-oxo-5H-thiazolo(3,2-a)-quinoline-4-carboxylic acid]
- MIC [1]: 0.78 µg/mL (≈ 2.08 µM)
- MIC [2]: 0.025 µg/mL (≈ 0.0666 µM)
- MIC [3]: 0.78 µg/mL (≈ 2.08 µM)
- MIC [4]: 0.2 µg/mL (≈ 0.533 µM)
- MIC [5]: 0.1 µg/mL (≈ 0.266 µM)
- MIC [6]: 0.39 µg/mL (≈ 1.04 µM)
- MIC [7]: 0.78 µg/mL (≈ 2.08 µM)
- MIC [8]: 0.025 µg/mL (≈ 0.0666 µM)
- Amount excreted into Urine ([9]; 0-3 hrs): 268.1 ± 84.4 µg
- Total Recovery in urine ([9]; 0-24 hrs): 813.9 µg
- excretion into urine (in words) ([9]; mice): excreted into urine almost completely; also recorded: excreted into urine promptly and in high concentration which is continued and exhibits high recovery rate
- metabolism (in words) ([9]; mice): metabolized to the compound of Example 21
- Amount excreted into Urine ([9]; 3-6 hrs): 108.3 ± 33.1 µg
- Amount excreted into Urine ([9]; 6-24 hrs): 437.5 ± 21.8 µg
